{
  "source": "patent US9617253B2",
  "about": "“Molecules having pesticidal utility, and intermediates, compositions, and processes, related thereto” (Dow AgroSciences LLC, priority 2015, dated 2017)",
  "key": {"[1]": {"system": "Beet Armyworm (Spodoptera exigua, LAPHEG)", "assay": "Bioassay on Beet Armyworm (BAW), 128-well diet tray assay", "type": "in vivo", "conditions": "168 h, second instar BAW larvae, 50 μg/cm^2 on artificial diet, 25° C., five to seven days, average of eight wells, read-out: BAW % Control (or Mortality) rating", "procedure": "(§1) Certain molecules disclosed in this document were tested against BAW and CL using procedures described in the following examples. In the reporting of the results, the “BAW & CL Rating Table” was used (See Table Section).\nBioassays on BAW were conducted using a 128-well diet tray assay. One to five second instar BAW larvae were placed in each well (3 mL) of the diet tray that had been previously filled with 1 mL of artificial diet to which 50 μg/cm^2 of the test molecule (dissolved in 50 μL of 90:10 acetone-water mixture) had been applied (to each of eight wells) and then allowed to dry. Trays were covered with a clear self-adhesive cover, vented to allow gas exchange, and held at 25° C., 14:10 light-dark for five to seven days. Percent mortality was recorded for the larvae in each well; activity in the eight wells was then averaged. The results are indicated in the table entitled “Table ABC: Biological Results” (See Table Section)."}, "[2]": {"system": "Cabbage Looper (Trichoplusia ni, TRIPNI)", "assay": "Bioassay on Cabbage Looper (CL), 128-well diet tray assay", "type": "in vivo", "conditions": "168 h, second instar CL larvae, 50 μg/cm^2 on artificial diet, 25° C., five to seven days, average of eight wells, read-out: CL % Control (or Mortality) rating", "procedure": "as §1\nBioassays on CL were conducted using a 128-well diet tray assay. One to five second instar CL larvae were placed in each well (3 mL) of the diet tray that had been previously filled with 1 mL of artificial diet to which 50 μg/cm^2 of the test molecule (dissolved in 50 μL of 90:10 acetone-water mixture) had been applied (to each of eight wells) and then allowed to dry. Trays were covered with a clear self-adhesive cover, vented to allow gas exchange, and held at 25° C., 14:10 light-dark for five to seven days. Percent mortality was recorded for the larvae in each well; activity in the eight wells was then averaged. The results are indicated in the table entitled “Table ABC: Biological Results” (See Table Section)."}},
  "data": [
    {"smiles": "COCc1ccc(C)cc1N1C(=O)CS/C1=N\\C(=O)Nc1ccc(OCc2ncn(-c3ccc(OC(F)(F)F)cc3)n2)cc1Cl", "values": [
      {"measurement": "melting point", "result": "148 to 150", "unit": "°C"}
    ]},
    {"smiles": "COCc1ccc(C)cc1N1C(=O)CS/C1=N\\C(=O)Nc1ccc(OCc2ncn(-c3ccc(OC(F)(F)F)cc3)n2)cc1F", "values": [
      {"measurement": "melting point", "result": "132 to 134", "unit": "°C"}
    ]},
    {"smiles": "COC(C)c1ccc(C)cc1N1C(=O)CS/C1=N\\C(=O)Nc1c(F)cc(OCc2ncn(-c3ccc(OC(F)(F)F)cc3)n2)cc1F", "note": "(stereo not shown)", "values": [
      {"measurement": "melting point", "result": "147 to 152", "unit": "°C"}
    ]},
    {"smiles": "CCCc1ccc(C)cc1N1C(=O)CS/C1=N\\C(=O)Nc1c(F)cc(OCc2ncn(-c3ccc(OC(F)(F)F)cc3)n2)cc1F", "values": [
      {"measurement": "melting point", "result": "169 to 172", "unit": "°C"}
    ]},
    {"smiles": "Cc1ccc(C(C)C)c(N2C(=O)CS/C2=N\\C(=O)Nc2ccc(OCc3ncn(-c4ccc(OC(F)(F)F)cc4)n3)cc2F)c1", "note": "[F16, (Z)-1-(2-Fluoro-4-((1-(4-(trifluoromethoxy)phenyl)-1H-1,2,4-triazol-3-yl)methoxy)phenyl)-3-(3-(2-isopropyl-5-methylphenyl)-4-oxothiazolidin-2-ylidene)urea]", "values": [
      {"measurement": "mortality at 50 µg/cm2", "setting": "[1]", "result": "50 to 100", "unit": "%"},
      {"measurement": "mortality at 50 µg/cm2", "setting": "[2]", "result": "50 to 100", "unit": "%"}
    ]},
    {"smiles": "COCc1ccc(C)cc1N1C(=O)CS/C1=N\\C(=O)Nc1ccc(OCc2ncn(-c3ccc(OC(F)(F)F)cc3)n2)cc1", "values": [
      {"measurement": "melting point", "result": "165 to 167", "unit": "°C"}
    ]},
    {"smiles": "COCc1ccc(C)cc1N1C(=O)CS/C1=N\\C(=O)Nc1cc(F)c(OCc2ncn(-c3ccc(OC(F)(F)F)cc3)n2)c(F)c1", "note": "[F43, (Z)-1-(3,5-Difluoro-4-((1-(4-(trifluoromethoxy)phenyl)-1H-1,2,4-triazol-3-yl)methoxy)phenyl)-3-(3-(2-(methoxymethyl)-5-methylphenyl)-4-oxothiazolidin-2-ylidene)urea]", "values": [
      {"measurement": "mortality at 50 µg/cm2", "setting": "[1]", "result": "50 to 100", "unit": "%"},
      {"measurement": "mortality at 50 µg/cm2", "setting": "[2]", "result": "50 to 100", "unit": "%"}
    ]},
    {"smiles": "Cc1cc(N2C(=O)CS/C2=N\\C(=O)Nc2ccc(COc3ncn(-c4ccc(OC(F)(F)F)cc4)n3)cc2F)c(C(C)C)cc1F", "note": "[F12, (Z)-1-(3-(4-Fluoro-2-isopropyl-5-methylphenyl)-4-oxothiazolidin-2-ylidene)-3-(2-fluoro-4-(((1-(4-(trifluoromethoxy)phenyl)-1H-1,2,4-triazol-3-yl)oxy)methyl)phenyl)urea]", "values": [
      {"measurement": "mortality at 50 µg/cm2", "setting": "[1]", "result": "50 to 100", "unit": "%"},
      {"measurement": "mortality at 50 µg/cm2", "setting": "[2]", "result": "50 to 100", "unit": "%"}
    ]},
    {"smiles": "CCCc1ccc(C)cc1N1C(=O)CS/C1=N\\C(=O)Nc1ccc(OCc2ncn(-c3ccc(OC(F)(F)F)cc3)n2)c(F)c1", "note": "[F36, (Z)-1-(3-Fluoro-4-((1-(4-(trifluoromethoxy)phenyl)-1H-1,2,4-triazol-3-yl)methoxy)phenyl)-3-(3-(5-methyl-2-propylphenyl)-4-oxothiazolidin-2-ylidene)urea]", "values": [
      {"measurement": "mortality at 50 µg/cm2", "setting": "[1]", "result": "50 to 100", "unit": "%"},
      {"measurement": "mortality at 50 µg/cm2", "setting": "[2]", "result": "50 to 100", "unit": "%"}
    ]},
    {"smiles": "COCc1ccc(C)cc1N1C(=O)CS/C1=N\\C(=O)Nc1c(F)cc(OCc2ncn(-c3ccc(OC(F)(F)F)cc3)n2)cc1F", "note": "[F19, (Z)-1-(2,6-Difluoro-4-((1-(4-(trifluoromethoxy)phenyl)-1H-1,2,4-triazol-3-yl)methoxy)phenyl)-3-(3-(2-(methoxymethyl)-5-methylphenyl)-4-oxothiazolidin-2-ylidene)urea]", "values": [
      {"measurement": "mortality at 50 µg/cm2", "setting": "[1]", "result": "50 to 100", "unit": "%"},
      {"measurement": "mortality at 50 µg/cm2", "setting": "[2]", "result": "50 to 100", "unit": "%"}
    ]},
    {"smiles": "COCc1ccc(C)cc1N1C(=O)CS/C1=N\\C(=O)Nc1ccc(OCc2ncn(-c3ccc(OC(F)(F)F)cc3)n2)cc1C", "note": "[F27, (Z)-1-(3-(2-(Methoxymethyl)-5-methylphenyl)-4-oxothiazolidin-2-ylidene)-3-(2-methyl-4-((1-(4-(trifluoromethoxy)phenyl)-1H-1,2,4-triazol-3-yl)methoxy)phenyl)urea]", "values": [
      {"measurement": "mortality at 50 µg/cm2", "setting": "[1]", "result": "50 to 100", "unit": "%"},
      {"measurement": "mortality at 50 µg/cm2", "setting": "[2]", "result": "50 to 100", "unit": "%"}
    ]},
    {"smiles": "CCCc1ccc(C)cc1N1C(=O)CS/C1=N\\C(=O)Nc1ccc(COc2ncn(-c3ccc(OC(F)(F)F)cc3)n2)cc1F", "note": "[F6, (Z)-1-(2-Fluoro-4-(((1-(4-(trifluoromethoxy)phenyl)-1H-1,2,4-triazol-3-yl)oxy)methyl)phenyl)-3-(3-(5-methyl-2-propylphenyl)-4-oxothiazolidin-2-ylidene)urea]", "values": [
      {"measurement": "mortality at 50 µg/cm2", "setting": "[1]", "result": "50 to 100", "unit": "%"},
      {"measurement": "mortality at 50 µg/cm2", "setting": "[2]", "result": "50 to 100", "unit": "%"}
    ]},
    {"smiles": "COCc1ccc(C)cc1N1C(=O)CS/C1=N\\C(=O)Nc1ccc(COc2ncn(-c3ccc(OC(F)(F)F)cc3)n2)c(OC)c1", "note": "[F11, (Z)-1-(3-Methoxy-4-(((1-(4-(trifluoromethoxy)phenyl)-1H-1,2,4-triazol-3-yl)oxy)methyl)phenyl)-3-(3-(2-(methoxymethyl)-5-methylphenyl)-4-oxothiazolidin-2-ylidene)urea]", "values": [
      {"measurement": "mortality at 50 µg/cm2", "setting": "[1]", "result": 0, "unit": "%"},
      {"measurement": "mortality at 50 µg/cm2", "setting": "[2]", "result": 0, "unit": "%"}
    ]},
    {"smiles": "Cc1ccc(C(C)C)c(N2C(=O)CS/C2=N\\C(=O)Nc2ccc(COc3ncn(-c4ccc(OC(F)(F)F)cc4)n3)cn2)c1", "note": "[F14, (Z)-1-(3-(2-Isopropyl-5-methylphenyl)-4-oxothiazolidin-2-ylidene)-3-(5-(((1-(4-(trifluoromethoxy)phenyl)-1H-1,2,4-triazol-3-yl)oxy)methyl)pyridin-2-yl)urea]", "values": [
      {"measurement": "mortality at 50 µg/cm2", "setting": "[1]", "result": "50 to 100", "unit": "%"},
      {"measurement": "mortality at 50 µg/cm2", "setting": "[2]", "result": "50 to 100", "unit": "%"}
    ]},
    {"smiles": "COC(C)c1ccc(C)cc1N1C(=O)CS/C1=N\\C(=O)Nc1ccc(OCc2ncn(-c3ccc(OC(F)(F)F)cc3)n2)cc1F", "note": "(stereo not shown) [F20, (Z)-1-(2-Fluoro-4-((1-(4-(trifluoromethoxy)phenyl)-1H-1,2,4-triazol-3-yl)methoxy)phenyl)-3-(3-(2-(1-methoxyethyl)-5-methylphenyl)-4-oxothiazolidin-2-ylidene)urea]", "values": [
      {"measurement": "mortality at 50 µg/cm2", "setting": "[1]", "result": "50 to 100", "unit": "%"},
      {"measurement": "mortality at 50 µg/cm2", "setting": "[2]", "result": "50 to 100", "unit": "%"}
    ]},
    {"smiles": "Cc1ccc(C(C)C)c(N2C(=O)CS/C2=N\\C(=O)Nc2ccc(COc3ncn(-c4ccc(OC(F)(F)F)cc4)n3)c(F)c2)c1", "note": "[F3, (Z)-1-(3-Fluoro-4-(((1-(4-(trifluoromethoxy)phenyl)-1H-1,2,4-triazol-3-yl)oxy)methyl)phenyl)-3-(3-(2-isopropyl-5-methylphenyl)-4-oxothiazolidin-2-ylidene)urea]", "values": [
      {"measurement": "mortality at 50 µg/cm2", "setting": "[1]", "result": "50 to 100", "unit": "%"},
      {"measurement": "mortality at 50 µg/cm2", "setting": "[2]", "result": "50 to 100", "unit": "%"}
    ]},
    {"smiles": "CCCc1ccc(C)cc1N1C(=O)CS/C1=N\\C(=O)Nc1cc(F)c(OCc2ncn(-c3ccc(OC(F)(F)F)cc3)n2)c(F)c1", "note": "[F42, (Z)-1-(3,5-Difluoro-4-((1-(4-(trifluoromethoxy)phenyl)-1H-1,2,4-triazol-3-yl)methoxy)phenyl)-3-(3-(5-methyl-2-propylphenyl)-4-oxothiazolidin-2-ylidene)urea]", "values": [
      {"measurement": "mortality at 50 µg/cm2", "setting": "[1]", "result": "50 to 100", "unit": "%"},
      {"measurement": "mortality at 50 µg/cm2", "setting": "[2]", "result": "50 to 100", "unit": "%"}
    ]},
    {"smiles": "COCc1ccc(C)cc1N1C(=O)CS/C1=N\\C(=O)Nc1ccc(OCc2ncn(-c3ccc(OC(F)(F)F)cc3)n2)nc1", "note": "[F46, (Z)-1-(3-(2-(Methoxymethyl)-5-methylphenyl)-4-oxothiazolidin-2-ylidene)-3-(6-((1-(4-(trifluoromethoxy)phenyl)-1H-1,2,4-triazol-3-yl)methoxy)pyridin-3-yl)urea]", "values": [
      {"measurement": "mortality at 50 µg/cm2", "setting": "[1]", "result": "0 to 50", "unit": "%"},
      {"measurement": "mortality at 50 µg/cm2", "setting": "[2]", "result": 0, "unit": "%"}
    ]},
    {"smiles": "CCCc1ccc(C)cc1N1C(=O)CS/C1=N\\C(=O)Nc1ccc(OCc2ncn(-c3ccc(OC(F)(F)F)cc3)n2)cc1Cl", "note": "[F30, (Z)-1-(2-Chloro-4-((1-(4-(trifluoromethoxy)phenyl)-1H-1,2,4-triazol-3-yl)methoxy)phenyl)-3-(3-(5-methyl-2-propylphenyl)-4-oxothiazolidin-2-ylidene)urea]", "values": [
      {"measurement": "mortality at 50 µg/cm2", "setting": "[1]", "result": "50 to 100", "unit": "%"},
      {"measurement": "mortality at 50 µg/cm2", "setting": "[2]", "result": "50 to 100", "unit": "%"}
    ]},
    {"smiles": "COc1cc(OCc2ncn(-c3ccc(OC(F)(F)F)cc3)n2)ccc1NC(=O)/N=C1\\SCC(=O)N1c1cc(C)ccc1C(C)C", "note": "[F32, (Z)-1-(3-(2-Isopropyl-5-methylphenyl)-4-oxothiazolidin-2-ylidene)-3-(2-methoxy-4-((1-(4-(trifluoromethoxy)phenyl)-1H-1,2,4-triazol-3-yl)methoxy)phenyl)urea]", "values": [
      {"measurement": "mortality at 50 µg/cm2", "setting": "[1]", "result": "50 to 100", "unit": "%"},
      {"measurement": "mortality at 50 µg/cm2", "setting": "[2]", "result": "50 to 100", "unit": "%"}
    ]},
    {"smiles": "COCc1ccc(C)cc1N1C(=O)CS/C1=N\\C(=O)Nc1ccc(OCc2ncn(-c3ccc(OC(F)(F)F)cc3)n2)c(Cl)c1", "note": "[F40, (Z)-1-(3-Chloro-4-((1-(4-(trifluoromethoxy)phenyl)-1H-1,2,4-triazol-3-yl)methoxy)phenyl)-3-(3-(2-(methoxymethyl)-5-methylphenyl)-4-oxothiazolidin-2-ylidene)urea]", "values": [
      {"measurement": "mortality at 50 µg/cm2", "setting": "[1]", "result": "50 to 100", "unit": "%"},
      {"measurement": "mortality at 50 µg/cm2", "setting": "[2]", "result": "50 to 100", "unit": "%"}
    ]}
  ]
}
